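Five compound concentrations were applied to cells in 96-well plates for 48 hours; endpoints were derived by simple linear interpolation of the resulting dose-response curve. At the GI50, growth is halved.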 Activity calls are given as the source filed them. Cut-off read from the data, not from the text of the source: active = GI50 up to about 1.1 µM and inactive = higher.
What was measured:
Test in all cases: growth of human tumour cells (NCI), 48 h
SF-539 = tested on: SF-539
IGROV-1 = tested on: IGROV-1
TK-10 = tested on: TK-10
HT-29 = tested on: HT-29
UACC-62 = tested on: UACC-62
SK-OV-3 = tested on: SK-OV-3
U-251 = tested on: U-251
RXF 393 = tested on: RXF 393
SK-MEL-28 = tested on: SK-MEL-28
SF-268 = tested on: SF-268
UO-31 = tested on: UO-31
M14 = tested on: M14
OVCAR-5 = tested on: OVCAR-5
SR = tested on: SR
NCI-H522 = tested on: NCI-H522
SNB-75 = tested on: SNB-75

Measured: GI50

CNc1ccc(/C=C2\C=Cc3ccccc32)cc1
inactive: SF-539 93.3 µM | IGROV-1 24.2 µM | TK-10 23.9 µM | HT-29 18.7 µM | UACC-62 20.1 µM | SK-OV-3 26.5 µM | U-251 32.4 µM | RXF 393 20.8 µM | SK-MEL-28 88.5 µM | SF-268 5.55 µM | UO-31 10.2 µM | M14 16.3 µM | OVCAR-5 18.8 µM | SR 53.2 µM | NCI-H522 10.8 µM

NNC(=S)N/N=C(\c1nc2ccc(Cl)cc2nc1O)C(O)c1cccc([N+](=O)[O-])c1 (stereo not drawn)
inactive: SF-539 > 31.8 µM | IGROV-1 > 100 µM | TK-10 > 100 µM | HT-29 > 36.1 µM | UACC-62 > 100 µM | SK-OV-3 > 100 µM | U-251 > 100 µM | RXF 393 > 94.4 µM | SK-MEL-28 > 49 µM | SNB-75 > 100 µM | SF-268 > 52.1 µM | UO-31 > 100 µM | M14 > 53.5 µM | OVCAR-5 > 100 µM | SR 15.9 µM | NCI-H522 > 100 µM

CN(C)C(=S)/N=c1\ss/c(=N\C(=S)N(C)C)n1-c1ccc(Cl)cc1
inactive: SF-539 > 100 µM | IGROV-1 > 100 µM | TK-10 > 100 µM | HT-29 > 100 µM | UACC-62 > 100 µM | SK-OV-3 > 100 µM | U-251 > 100 µM | RXF 393 > 100 µM | SK-MEL-28 > 100 µM | SNB-75 3.33 µM | SF-268 > 100 µM | UO-31 > 100 µM | M14 > 100 µM | OVCAR-5 > 100 µM | SR > 100 µM | NCI-H522 87.9 µM

N#CCC(=O)N/N=C(\C(=O)Nc1ccc(Cl)c(Cl)c1)C1CN(c2ccccc2)N=C1N (stereo not drawn)
inactive: SF-539 > 100 µM | IGROV-1 > 100 µM | TK-10 > 100 µM | HT-29 > 100 µM | UACC-62 > 100 µM | SK-OV-3 > 100 µM | U-251 > 100 µM | RXF 393 > 100 µM | SK-MEL-28 > 100 µM | SNB-75 > 100 µM | SF-268 > 100 µM | UO-31 > 100 µM | M14 > 100 µM | OVCAR-5 > 100 µM | SR > 100 µM | NCI-H522 > 100 µM

Cc1cc(=O)oc2c(C)c(OCCCOc3ccc4c(C)cc(=O)oc4c3C)ccc12
inactive: SF-539 > 100 µM | IGROV-1 > 100 µM | TK-10 > 100 µM | HT-29 > 100 µM | UACC-62 > 100 µM | SK-OV-3 > 100 µM | U-251 > 100 µM | SK-MEL-28 > 100 µM | SF-268 > 100 µM | UO-31 > 100 µM | M14 > 100 µM | OVCAR-5 > 100 µM | SR > 100 µM | NCI-H522 > 100 µM

Cc1ccccc1NC(=O)C(=O)C(C#N)c1ccccc1C (stereo not drawn)
inactive: SF-539 > 100 µM | IGROV-1 > 100 µM | TK-10 > 100 µM | HT-29 > 100 µM | UACC-62 > 100 µM | SK-OV-3 > 100 µM | U-251 > 100 µM | RXF 393 > 100 µM | SK-MEL-28 > 100 µM | SNB-75 > 100 µM | SF-268 > 100 µM | UO-31 > 100 µM | M14 > 100 µM | OVCAR-5 > 100 µM | SR > 100 µM | NCI-H522 59.3 µM

COC(=O)N/N=C(\c1nc2ccc(Cl)cc2nc1O)C(O)c1ccc([N+](=O)[O-])cc1 (stereo not drawn)
inactive: SF-539 > 100 µM | IGROV-1 > 100 µM | HT-29 > 100 µM | UACC-62 > 100 µM | SK-OV-3 > 100 µM | U-251 > 100 µM | RXF 393 > 100 µM | SK-MEL-28 > 100 µM | SNB-75 > 100 µM | SF-268 > 100 µM | UO-31 > 100 µM | M14 > 100 µM | OVCAR-5 > 100 µM | SR 30.5 µM | NCI-H522 > 100 µM

Cc1c2c(cc3c(=O)ccn(CCN(C)C)c13)c(=O)ccn2CCN(C)C
inactive: SF-539 15 µM | IGROV-1 12.4 µM | TK-10 11.7 µM | UACC-62 17.2 µM | SK-OV-3 8.61 µM | U-251 8.34 µM | RXF 393 14.2 µM | SK-MEL-28 20.4 µM | SNB-75 11.9 µM | SF-268 6.93 µM | UO-31 10.3 µM | M14 12.5 µM | OVCAR-5 13.5 µM | SR 10.6 µM | NCI-H522 2.31 µM

FC(F)(F)C1(Br)C(c2ccccc2)=C1c1ccccc1
inactive: SF-539 17.9 µM | IGROV-1 24.7 µM | TK-10 22.9 µM | HT-29 17.9 µM | UACC-62 15.8 µM | SK-OV-3 45.2 µM | U-251 15.6 µM | RXF 393 15.5 µM | SK-MEL-28 18.9 µM | SNB-75 29.1 µM | SF-268 19.3 µM | UO-31 18 µM | M14 17.1 µM | OVCAR-5 20.9 µM | SR 5.11 µM

From ChEMBL document CHEMBL1201862, “PubChem BioAssay data set” (2004)
